Results: PubChem BioAssay AID1963443 (Molecular Pharmacology Branch, DTP, NCI, 2024)
Values joined by “and” are separate entries in the source; they are usually repeats but may differ in a detail not shown here. Identical values can stand only once.

System: MDA-MB-231 complex spheroids, growth inhibition
Assay: Anticancer human tumor MDA-MB-231 cell line growth inhibition [Asc];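 further: spheroids exposed to compounds for 7 days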
Conditions: for viability, T/C: stronger effect = lower value
Procedure, shortened: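 Spheroid model: tumor line + HUVEC + hMSC. Single agents and combinations; top conc. at/near clinical Cmax (10 microM if undetermined), half-log dilutions. DMSO stocks at 800-fold test concentration.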

[1] = curve of first compound, second compound 0.03 µM
[2] = curve of first compound, second compound 0.0949 µM
[3] = curve of first compound, second compound 0.3 µM
[4] = curve of first compound, second compound 0.949 µM
[5] = curve of first compound, second compound 3 µM
[6] = second compound 0.03 µM, first compound 0.0316 µM
[7] = second compound 0.03 µM, first compound 0.1 µM
[8] = second compound 0.03 µM, first compound 0.316 µM
[9] = second compound 0.03 µM, first compound 1 µM
[10] = second compound 0.0949 µM, first compound 0.0316 µM
[11] = second compound 0.0949 µM, first compound 0.1 µM
[12] = second compound 0.0949 µM, first compound 0.316 µM
[13] = second compound 0.0949 µM, first compound 1 µM
[14] = second compound 0.3 µM, first compound 0.0316 µM
[15] = second compound 0.3 µM, first compound 0.1 µM
[16] = second compound 0.3 µM, first compound 0.316 µM
[17] = second compound 0.3 µM, first compound 1 µM
[18] = second compound 0.949 µM, first compound 0.0316 µM
[19] = second compound 0.949 µM, first compound 0.1 µM
[20] = second compound 0.949 µM, first compound 0.316 µM
[21] = second compound 0.949 µM, first compound 1 µM
[22] = second compound 3 µM, first compound 0.0316 µM
[23] = second compound 3 µM, first compound 0.1 µM
[24] = second compound 3 µM, first compound 0.316 µM
[25] = second compound 3 µM, first compound 1 µM
[26] = curve of first compound, second compound 0.01 µM
[27] = curve of first compound, second compound 0.0316 µM
[28] = curve of first compound, second compound 0.1 µM
[29] = curve of first compound, second compound 0.316 µM
[30] = curve of first compound, second compound 1 µM
[31] = second compound 0.01 µM, first compound 0.00316 µM
[32] = second compound 0.01 µM, first compound 0.01 µM
[33] = second compound 0.01 µM, first compound 0.0316 µM
[34] = second compound 0.01 µM, first compound 0.1 µM
[35] = second compound 0.0316 µM, first compound 0.00316 µM
[36] = second compound 0.0316 µM, first compound 0.01 µM
[37] = second compound 0.0316 µM, first compound 0.0316 µM
[38] = second compound 0.0316 µM, first compound 0.1 µM
[39] = second compound 0.1 µM, first compound 0.00316 µM
[40] = second compound 0.1 µM, first compound 0.01 µM
[41] = second compound 0.1 µM, first compound 0.0316 µM
[42] = second compound 0.1 µM, first compound 0.1 µM
[43] = second compound 0.316 µM, first compound 0.00316 µM
[44] = second compound 0.316 µM, first compound 0.01 µM
[45] = second compound 0.316 µM, first compound 0.0316 µM
[46] = second compound 0.316 µM, first compound 0.1 µM
[47] = second compound 1 µM, first compound 0.00316 µM
[48] = second compound 1 µM, first compound 0.01 µM
[49] = second compound 1 µM, first compound 0.0316 µM
[50] = second compound 1 µM, first compound 0.1 µM

## C#Cc1c(F)ccc2cc(O)cc(-c3ncc4c(N5CC6CCC(C5)N6)nc(OCC56CCCN5CC(F)C6)nc4c3F)c12 (configuration not stated) + CCN1C(C(=O)NC23CCC(C(=O)O)(CC2)CC3)C(c2cccc(Cl)c2F)C2(C(=O)Nc3cc(Cl)ccc32)C12CCCCC2
[1]
  IC50: > 10000 nM
[2]
  IC50: 8440 nM
[3]
  IC50: > 10000 nM
[4]
  IC50: > 10000 nM
[5]
  IC50: 898 nM
[6]
  viability, T/C: 96.8%
[7]
  viability, T/C: 96.5%
[8]
  viability, T/C: 92.8%
[9]
  viability, T/C: 74.9%
Second compound 0.03 µM, first compound 3.16 µM
  viability, T/C: 63.8%
Second compound 0.03 µM, first compound 10 µM
  viability, T/C: 55.1%
[10]
  viability, T/C: 108%
[11]
  viability, T/C: 98.2%
[12]
  viability, T/C: 94.7%
[13]
  viability, T/C: 70.2%
Second compound 0.0949 µM, first compound 3.16 µM
  viability, T/C: 59.3%
Second compound 0.0949 µM, first compound 10 µM
  viability, T/C: 48.1%
[14]
  viability, T/C: 106%
[15]
  viability, T/C: 107%
[16]
  viability, T/C: 98.8%
[17]
  viability, T/C: 72.5%
Second compound 0.3 µM, first compound 3.16 µM
  viability, T/C: 59.3%
Second compound 0.3 µM, first compound 10 µM
  viability, T/C: 48.5%
[18]
  viability, T/C: 108%
[19]
  viability, T/C: 106%
[20]
  viability, T/C: 103%
[21]
  viability, T/C: 66.2%
Second compound 0.949 µM, first compound 3.16 µM
  viability, T/C: 61.5%
Second compound 0.949 µM, first compound 10 µM
  viability, T/C: 45.8%
[22]
  viability, T/C: 96.7%
[23]
  viability, T/C: 90.5%
[24]
  viability, T/C: 68.8%
[25]
  viability, T/C: 47.4%
Second compound 3 µM, first compound 3.16 µM
  viability, T/C: 43.5%
Second compound 3 µM, first compound 10 µM
  viability, T/C: 36.4%

## O=C(c1ccc(F)c(F)c1Nc1ccc(I)cc1F)N1CC(O)([C@@H]2CCCCN2)C1 + CNC(C)C(=O)NC1CN(S(=O)(=O)c2cccc(S(=O)(=O)N3CCC4CCC(C(=O)NC(c5ccccc5)c5ccccc5)N4C(=O)C(NC(=O)C(C)NC)C3)c2)CCC2CCC(C(=O)NC(c3ccccc3)c3ccccc3)N2C1=O
[26]
  IC50: < 3.16 nM
[27]
  IC50: < 3.16 nM
[28]
  IC50: < 3.16 nM
[29]
  IC50: < 3.16 nM
[30]
  IC50: < 3.16 nM
[31]
  viability, T/C: 1.58%
[32]
  viability, T/C: 1.82%
[33]
  viability, T/C: 1.57%
[34]
  viability, T/C: 1.24%
Second compound 0.01 µM, first compound 0.316 µM
  viability, T/C: 0.45%
Second compound 0.01 µM, first compound 1 µM
  viability, T/C: 0.19%
[35]
  viability, T/C: 2%
[36]
  viability, T/C: 1.64%
[37]
  viability, T/C: 1.23%
[38]
  viability, T/C: 0.72%
Second compound 0.0316 µM, first compound 0.316 µM
  viability, T/C: 0.39%
Second compound 0.0316 µM, first compound 1 µM
  viability, T/C: 0.17%
[39]
  viability, T/C: 0.99%
[40]
  viability, T/C: 0.94%
[41]
  viability, T/C: 0.88%
[42]
  viability, T/C: 0.74%
Second compound 0.1 µM, first compound 0.316 µM
  viability, T/C: 0.5%
Second compound 0.1 µM, first compound 1 µM
  viability, T/C: 0.25%
[43]
  viability, T/C: 1.14%
[44]
  viability, T/C: 0.91%
[45]
  viability, T/C: 0.9%
[46]
  viability, T/C: 1.27%
Second compound 0.316 µM, first compound 0.316 µM
  viability, T/C: 0.57%
Second compound 0.316 µM, first compound 1 µM
  viability, T/C: 0.2%
[47]
  viability, T/C: 1.64%
[48]
  viability, T/C: 1.24%
[49]
  viability, T/C: 1.11%
[50]
  viability, T/C: 1.67%
Second compound 1 µM, first compound 0.316 µM
  viability, T/C: 1.13%
Second compound 1 µM, first compound 1 µM
  viability, T/C: 0.21%

## Cn1ncnc1[C@H]1c2n[nH]c(=O)c3cc(F)cc(c23)N[C@@H]1c1ccc(F)cc1 + CNC(C)C(=O)NC1CN(S(=O)(=O)c2cccc(S(=O)(=O)N3CCC4CCC(C(=O)NC(c5ccccc5)c5ccccc5)N4C(=O)C(NC(=O)C(C)NC)C3)c2)CCC2CCC(C(=O)NC(c3ccccc3)c3ccccc3)N2C1=O
[26]
  IC50: < 0.316 nM
[27]
  IC50: < 0.316 nM
[28]
  IC50: < 0.316 nM
[29]
  IC50: < 0.316 nM
[30]
  IC50: < 0.316 nM
Second compound 0.01 µM, first compound 0.000316 µM
  viability, T/C: 1.83%
Second compound 0.01 µM, first compound 0.001 µM
  viability, T/C: 2.14%
[31]
  viability, T/C: 2.04%
[32]
  viability, T/C: 2.04%
[33]
  viability, T/C: 1.45%
[34]
  viability, T/C: 1.63%
Second compound 0.0316 µM, first compound 0.000316 µM
  viability, T/C: 1.73%
Second compound 0.0316 µM, first compound 0.001 µM
  viability, T/C: 1.45%
[35]
  viability, T/C: 1.76%
[36]
  viability, T/C: 1.3%
[37]
  viability, T/C: 1.2%
[38]
  viability, T/C: 1.22%
Second compound 0.1 µM, first compound 0.000316 µM
  viability, T/C: 1.17%
Second compound 0.1 µM, first compound 0.001 µM
  viability, T/C: 1.47%
[39]
  viability, T/C: 0.96%
[40]
  viability, T/C: 1.19%
[41]
  viability, T/C: 1.34%
[42]
  viability, T/C: 1.16%
Second compound 0.316 µM, first compound 0.000316 µM
  viability, T/C: 1.12%
Second compound 0.316 µM, first compound 0.001 µM
  viability, T/C: 1.11%
[43]
  viability, T/C: 1.32%
[44]
  viability, T/C: 0.91%
[45]
  viability, T/C: 1.05%
[46]
  viability, T/C: 1.11%
Second compound 1 µM, first compound 0.000316 µM
  viability, T/C: 1.53%
Second compound 1 µM, first compound 0.001 µM
  viability, T/C: 1.2%
[47]
  viability, T/C: 1.23%
[48]
  viability, T/C: 1.23%
[49]
  viability, T/C: 1.28%
[50]
  viability, T/C: 1.26%

## CCN1CCN(Cc2ccc(Nc3ncc(F)c(-c4cc(F)c5nc(C)n(C(C)C)c5c4)n3)nc2)CC1
Compound 0.00316 µM
  viability, T/C: 91.9% and 79.5% and 77%
Compound 0.01 µM
  viability, T/C: 92.6% and 86.9% and 80%
Compound 0.0316 µM
  viability, T/C: 78.5% and 79.9% and 88.6%
Compound 0.1 µM
  viability, T/C: 64.9% and 54.5% and 74.4%
Compound 0.316 µM
  viability, T/C: 51.7% and 48% and 64.4%
Compound 1 µM
  viability, T/C: 50.2% and 48.8% and 72%
Curve of compound
  IC50: 882 nM and 238 nM and > 1000 nM

## CNC(C)C(=O)NC1CN(S(=O)(=O)c2cccc(S(=O)(=O)N3CCC4CCC(C(=O)NC(c5ccccc5)c5ccccc5)N4C(=O)C(NC(=O)C(C)NC)C3)c2)CCC2CCC(C(=O)NC(c3ccccc3)c3ccccc3)N2C1=O (configuration not stated) + CCN1C(C(=O)NC23CCC(C(=O)O)(CC2)CC3)C(c2cccc(Cl)c2F)C2(C(=O)Nc3cc(Cl)ccc32)C12CCCCC2
[1]
  IC50: < 3.16 nM
[2]
  IC50: < 3.16 nM
[3]
  IC50: < 3.16 nM
[4]
  IC50: < 3.16 nM
[5]
  IC50: < 3.16 nM
Second compound 0.03 µM, first compound 0.00316 µM
  viability, T/C: 6.71%
Second compound 0.03 µM, first compound 0.01 µM
  viability, T/C: 1.67%
[6]
  viability, T/C: 1.57%
[7]
  viability, T/C: 1.22%
[8]
  viability, T/C: 1.14%
[9]
  viability, T/C: 0.97%
Second compound 0.0949 µM, first compound 0.00316 µM
  viability, T/C: 5.03%
Second compound 0.0949 µM, first compound 0.01 µM
  viability, T/C: 1.98%
[10]
  viability, T/C: 1.66%
[11]
  viability, T/C: 1.78%
[12]
  viability, T/C: 1.27%
[13]
  viability, T/C: 0.74%
Second compound 0.3 µM, first compound 0.00316 µM
  viability, T/C: 5.55%
Second compound 0.3 µM, first compound 0.01 µM
  viability, T/C: 3.61%
[14]
  viability, T/C: 2.08%
[15]
  viability, T/C: 2.17%
[16]
  viability, T/C: 0.84%
[17]
  viability, T/C: 1.46%
Second compound 0.949 µM, first compound 0.00316 µM
  viability, T/C: 3.82%
Second compound 0.949 µM, first compound 0.01 µM
  viability, T/C: 2.39%
[18]
  viability, T/C: 2.37%
[19]
  viability, T/C: 0.77%
[20]
  viability, T/C: 0.84%
[21]
  viability, T/C: 0.96%
Second compound 3 µM, first compound 0.00316 µM
  viability, T/C: 2.23%
Second compound 3 µM, first compound 0.01 µM
  viability, T/C: 1%
[22]
  viability, T/C: 1.14%
[23]
  viability, T/C: 0.61%
[24]
  viability, T/C: 0.68%
[25]
  viability, T/C: 0.75%
